Reference: patent US5675003A, “3-ammoniopropenyl cephalosporin compounds as antibacterial agents” (Korea Institute of Science and Technology, priority 1995, dated 1997)
≈ marks a conversion by molar mass, not a printed value.

Tests used:
Assay in all cases: MIC, in vitro agar dilution method
Format in all cases: cell-based
[1] = system: Enterobacter cloacae P 99; details: Enterobacter cloacae, P99
Experimental: (§1) The MICs of the new cephalosporins of the present invention against Gram-positive and Gram-negative bacteria were determined by an in vitro agar dilution method. For comparisons, the MIC values of ceftazidime are also listed.
(§2) In vitro antimicrobial activity of the cephalosporins (l) (MIC:
En.c.1, Enterobacter cloacae P 99;

[2] = system: Staphlococcus aureus SG 511; details: S.a.1, Staphlococcus aureus SG 511; agar dilution; read-out: MIC
Experimental: as §1, §2
S.a.1, Staphlococcus aureus SG 511;

[3] = system: Staphylococcus aureus 285; details: S.a.2, Staphylococcus aureus 285; agar dilution; read-out: MIC
Experimental: as §1, §2
E.c. TEM, S.a. 2, Staphylococcus aureus 285;

[4] = system: Pseudomonas aeruginosa 1771 M; details: P.a.4, Pseudomonas aeruginosa 1771 M; agar dilution; read-out: MIC
Experimental: as §1, §2
P.a.4, Pseudomonas aeruginosa 1771 M;

[5] = system: Streptococcus pyogenes A 77; details: A77; S.p.2, Streptococcus pyogenes A 77; agar dilution; read-out: MIC
Experimental: as §1, §2
S.p.2, Streptococcus pyogenes A 77;

[6] = system: Pseudomonas aeruginosa 1592 E; details: P.a.2, Pseudomonas aeruginosa 1592 E; agar dilution; read-out: MIC
Experimental: as §1, §2
P.a.2, Pseudomonas aeruginosa 1592 E;

[7] = system: Enterobacter cloacae 1321 E; details: En.c.2, Enterobacter cloacae 1321 E; agar dilution; read-out: MIC
Experimental: as §1, §2
En.c.2, Enterobacter cloacae 1321 E.

[8] = system: Klebsiella aerogenes 1552 E; details: K.a., Klebsiella aerogenes 1552 E; agar dilution; read-out: MIC
Experimental: as §1, §2
K.a., Klebsiella aerogenes 1552 E;

[9] = system: Pseudomonas eruginosa 1771; details: P.a.3, Pseudomonas eruginosa 1771
Experimental: as §1, §2
P.a.3, Pseudomonas eruginosa 1771;

E.c.5 = details: Escherichia coli, E.c.5 (strain not defined)
Experimental: as §1

Escherichia coli DC0 = details: E.c.2, Escherichia coli DC0
Experimental: as §1, §2
E.c.2, Escherichia coli DC0;

Salmonella typhimurium = details: Salmonella enterica; S.t., Salmonella typhimurium; agar dilution; read-out: MIC
Experimental: as §1, §2
S.t., Salmonella typhimurium;

Streptococcus faecium MD = details: Enterococcus faecium; S.f., Streptococcus faecium MD; agar dilution; read-out: MIC
Experimental: as §1, §2
S.f., Streptococcus faecium MD;

[10] = system: Staphylococcus aureus 503; details: S.a.3, Staphylococcus aureus 503; agar dilution; read-out: MIC
Experimental: as §1, §2
S.a.3, Staphylococcus aureus 503;

Escherichia coli 1507 E = details: E.c.4, Escherichia coli 1507 E
Experimental: as §1, §2
E.c.4, Escherichia coli 1507 E;

[11] = system: Klebsiella oxytoca 1082 E; details: K.o., Klebsiella oxytoca 1082 E; agar dilution; read-out: MIC
Experimental: as §1, §2
K.o., Klebsiella oxytoca 1082 E;

[12] = system: Streptococcus pyogenes 308 A; details: S.p.1, Streptococcus pyogenes 308 A; agar dilution; read-out: MIC
Experimental: as §1, §2
S.p.1, Streptococcus pyogenes 308 A;

Escherichia coli O55 = details: E.c.1, Escherichia coli O55
Experimental: as §1, §2
E.c.1, Escherichia coli O55;

Escherichia coli TEM = details: E.c.3, Escherichia coli TEM
Experimental: as §1, §2
E.c.3, Escherichia coli TEM;

[13] = system: Pseudomonas aeruginosa 9027; details: P.a.1, Pseudomonas aeruginosa 9027; agar dilution; read-out: MIC
Experimental: as §1, §2
P.a.1, Pseudomonas aeruginosa 9027;

Row | SMILES | MIC [1] | MIC [2] | MIC [3] | MIC [4] | MIC [5] | MIC [6] | MIC [7] | MIC [8] | MIC [9] | MIC (E.c.5) | MIC (Escherichia coli DC0) | MIC (Salmonella typhimurium) | MIC (Streptococcus faecium MD) | MIC [10] | MIC (Escherichia coli 1507 E) | MIC [11] | MIC [12] | MIC (Escherichia coli O55) | MIC (Escherichia coli TEM) | MIC [13]
1 | CO/N=C(\C(=O)N[C@@H]1C(=O)N2C(C(=O)[O-])=C(/C=C/C[N+]3(C)C[C@H](O)C[C@H]3CO)CS[C@H]12)c1csc(N)n1 (stereo partly drawn) [1-c, 7β-[2-(2-Aminothiazol-4-yl)-(Z)-2-methoxyiminoacetamido]-3-[(E)-3-(4R-hydroxy-2S-hydroxymethyl-1-methyl-1-pyrrolidinio)-1-propen-1-yl]-3-cephem-4-carboxylate] | 3.13 µg/mL (≈ 5.66 µM) | 0.39 µg/mL (≈ 0.706 µM) | 0.78 µg/mL (≈ 1.41 µM) | 0.2 µg/mL (≈ 0.362 µM) | 0.004 µg/mL (≈ 0.00724 µM) | 3.13 µg/mL (≈ 5.66 µM) | 0.013 µg/mL (≈ 0.0235 µM) | 0.049 µg/mL (≈ 0.0887 µM) | 1.56 µg/mL (≈ 2.82 µM) | 0.049 µg/mL (≈ 0.0887 µM) | 0.049 µg/mL (≈ 0.0887 µM) | 0.025 µg/mL (≈ 0.0452 µM) | 50 µg/mL (≈ 90.5 µM) | 0.2 µg/mL (≈ 0.362 µM) | 0.049 µg/mL (≈ 0.0887 µM) | 3.13 µg/mL (≈ 5.66 µM) | 0.013 µg/mL (≈ 0.0235 µM) | 0.013 µg/mL (≈ 0.0235 µM) | 0.025 µg/mL (≈ 0.0452 µM) | 6.25 µg/mL (≈ 11.3 µM)
2 | CO/N=C(\C(=O)N[C@@H]1C(=O)N2C(C(=O)[O-])=C(/C=C/C[N+]3(C)CC[C@@H](O)[C@H](O)C3)CS[C@H]12)c1csc(N)n1 (relative stereo) [1-f, 7β-[2-(2-Aminothiazol-4-yl)-(Z)-2-methoxyiminoacetamido]-3-[(E)-3-(3,4-trans-dihydroxy-1-methyl-1-piperidinio)-1-propen-1-yl]-3-cephem-4-carboxylate] | 12.5 µg/mL (≈ 22.6 µM) | 0.39 µg/mL (≈ 0.706 µM) | 0.78 µg/mL (≈ 1.41 µM) | 0.098 µg/mL (≈ 0.177 µM) | 0.013 µg/mL (≈ 0.0235 µM) | 1.56 µg/mL (≈ 2.82 µM) | 0.025 µg/mL (≈ 0.0452 µM) | 0.025 µg/mL (≈ 0.0452 µM) | 0.78 µg/mL (≈ 1.41 µM) | 0.049 µg/mL (≈ 0.0887 µM) | 0.049 µg/mL (≈ 0.0887 µM) | 0.025 µg/mL (≈ 0.0452 µM) | 50 µg/mL (≈ 90.5 µM) | 0.2 µg/mL (≈ 0.362 µM) | 0.049 µg/mL (≈ 0.0887 µM) | 3.13 µg/mL (≈ 5.66 µM) | 0.013 µg/mL (≈ 0.0235 µM) | 0.025 µg/mL (≈ 0.0452 µM) | 0.025 µg/mL (≈ 0.0452 µM) | 3.13 µg/mL (≈ 5.66 µM)
3 | CO/N=C(\C(=O)N[C@@H]1C(=O)N2C(C(=O)[O-])=C(/C=C/C[N+]3(C)CCCCC3CO)CS[C@H]12)c1csc(N)n1 (some centres unmarked) [1-h] | 3.13 µg/mL (≈ 5.68 µM) | 0.39 µg/mL (≈ 0.708 µM) | 0.39 µg/mL (≈ 0.708 µM) | 0.098 µg/mL (≈ 0.178 µM) | 0.007 µg/mL (≈ 0.0127 µM) | 3.13 µg/mL (≈ 5.68 µM) | 0.013 µg/mL (≈ 0.0236 µM) | 0.025 µg/mL (≈ 0.0454 µM) | 1.56 µg/mL (≈ 2.83 µM) | 0.049 µg/mL (≈ 0.089 µM) | 0.049 µg/mL (≈ 0.089 µM) | 0.025 µg/mL (≈ 0.0454 µM) | 25 µg/mL (≈ 45.4 µM) | 0.2 µg/mL (≈ 0.363 µM) | 0.049 µg/mL (≈ 0.089 µM) | 1.56 µg/mL (≈ 2.83 µM) | 0.013 µg/mL (≈ 0.0236 µM) | 0.013 µg/mL (≈ 0.0236 µM) | 0.025 µg/mL (≈ 0.0454 µM) | 6.25 µg/mL (≈ 11.3 µM)
4 | CO/N=C(\C(=O)N[C@@H]1C(=O)N2C(C(=O)[O-])=C(/C=C/C[N+]3(C)CCC(O)CC3)CS[C@H]12)c1csc(N)n1 (stereo partly drawn) [1-g, 7β-[2-(2-Aminothiazol-4-yl)-(Z)-2-methoxyiminoacetamido]-3-[(E)-3-(4-hydroxy-1-methyl-1-piperidinio)-1-propen-1-yl]-3-cephem-4-carboxylate] | 3.13 µg/mL (≈ 5.83 µM) | 0.39 µg/mL (≈ 0.727 µM) | 0.78 µg/mL (≈ 1.45 µM) | 0.2 µg/mL (≈ 0.373 µM) | 0.013 µg/mL (≈ 0.0242 µM) | 3.13 µg/mL (≈ 5.83 µM) | 0.025 µg/mL (≈ 0.0466 µM) | 0.025 µg/mL (≈ 0.0466 µM) | 1.56 µg/mL (≈ 2.91 µM) | 0.049 µg/mL (≈ 0.0913 µM) | 0.049 µg/mL (≈ 0.0913 µM) | 0.049 µg/mL (≈ 0.0913 µM) | 50 µg/mL (≈ 93.2 µM) | 0.2 µg/mL (≈ 0.373 µM) | 0.098 µg/mL (≈ 0.183 µM) | 3.13 µg/mL (≈ 5.83 µM) | 0.013 µg/mL (≈ 0.0242 µM) | 0.025 µg/mL (≈ 0.0466 µM) | 0.049 µg/mL (≈ 0.0913 µM) | 6.25 µg/mL (≈ 11.6 µM)
